{"source": "patent US5997501A", "about": "“Intradermal drug delivery device” (Elan Corporation, plc, priority 1993, dated 1999)", "key": {"serum calcium": {"tested_on": "serum calcium", "experiment": "Serum calcium concentration in rabbits after intradermal device infusion of salmon calcitonin (Example 2, FIG. 20)", "assay_type": "in vivo, rabbit", "conditions": "for mean serum calcium concentration, % of control value: 1.0 mg/ml at 0.1 ml/hour for 6 hours, four rabbits", "experimental": "A device according to the present invention containing 0.6 ml of a solution of salmon calcitonin (1.0 mg/ml) was affixed to each of four rabbits. This solution was infused at the rate of 0.1 ml/hour for 6 hours. Serum calcium concentrations were measured via an ear vein at 0, 0.5, 1, 2, 3, 4, 5 and 6 hours following activation of the device, at which point the device was removed."}, "[1]": {"experiment": "Delivery of calcitonin from device compared with conventional subcutaneous injection (plasma calcitonin by EIA, plasma calcium by photometric analysis)", "assay_type": "in vivo, New Zealand white rabbits", "description": "(§1) Devices manufactured according to the present invention were used to study the delivery of insulin, heparin and salmon calcitonin to New Zealand white rabbits weighing between 2.5 kg and 3.5 kg. Hair was removed from the dorsal surface of the animal using an electric clipper twenty-fours prior to application of the device. Arterial blood samples were withdrawn for determination of plasma concentration of drug through an indwelling cannula placed in the ear artery.\nTo compare delivery of calcitonin using devices according to the present invention to conventional delivery, 40 IU calcitonin was delivered to a rabbit over 2 hours from a device according to the present invention and 20 IU calcitonin was delivered by a conventional single subcutaneous injection. In a further study, calcitonin was delivered at a rate of 25 IU/h and 100 IU/h for a period of 6 hours from devices according to the present invention. Plasma concentrations of calcium were measured using a photometric analysis while calcitonin concentrations were measured by an EIA method."}, "[2]": {"assay_type": "in vivo, New Zealand white rabbits", "conditions": "1000 IU/h for 5 hours from device", "description": "as §1\nDelivery of heparin from devices according to the present invention was studied by administering heparin at a rate of 1000 IU/h for 5 hours. Plasma heparing was assayed using an EIA method."}, "blood glucose [3]": {"tested_on": "blood glucose", "experiment": "Blood glucose concentration in rabbits after intradermal device infusion of insulin (Example 1, FIG. 19)", "assay_type": "in vivo, rabbit", "conditions": "for mean blood glucose concentration: control value 6.25 mmol/l", "experimental": "A device according to the present invention containing 0.6 ml of a solution of insulin (100 I.U./ml) was affixed to each of two rabbits and the devices were switched on. The insulin solution was infused at a rate of 0.1 ml/hour for two hours. […] At one hour, mean blood glucose concentration had fallen from a control value of 6.25 mmol/l to 3.2 mmol/l. This value stayed relatively constant at 1.5 hours following activation (2.65 mmol/l) and at 2 hours (2.5 mmol/l), at which time the devices were removed."}, "[4]": {"experiment": "Plasma insulin concentration (RIA) in rabbits during device delivery of insulin (Example 3)", "assay_type": "in vivo, New Zealand white rabbits", "conditions": "5 IU/h, time=3h", "description": "as §1\n(§2) Diabetes was induced in test rabbits by administration intravenously of a 150 mg/kg dose of alloxan (monohydrate) to fasted rabbits. The rabbits were provided with a dextrose solution for three days after alloxan administration and after this time normal diet was resumed. Test animals were maintained healthy with a commercial insulin preparation prior to the study. The devices were attached to the rabbits and delivery of insulin at a rate of 5 IU/h was commenced to normoglycaemic animals (for 3 hours) and to diabetic animals (for 3.25 hours). Whole blood glucose concentrations were measured using an Ames glucometer and plasma insulin concentration were measured using a RIA method."}, "blood glucose [5]": {"tested_on": "blood glucose", "experiment": "Whole blood glucose concentration (Ames glucometer) in rabbits during device delivery of insulin (Example 3)", "assay_type": "in vivo, New Zealand white rabbits", "conditions": "normal and diabetic animals; 5 IU/h", "description": "as §1, §2"}}, "data": [{"substance": "salmon calcitonin", "values": [{"measurement": "mean calcium concentrations, course", "setting": "serum calcium; 0 to 6 hours, 0.1 ml/hour", "result": "fell steadily throughout the period of application"}, {"measurement": "mean serum calcium concentration, % of control value", "setting": "serum calcium; 5 hours following activation", "result": 62.5, "unit": "%"}, {"measurement": "mean serum calcium concentration, % of control value", "setting": "serum calcium; 6 hours following activation", "result": 66.6, "unit": "%"}, {"measurement": "delivery of calcitonin, dose proportionality", "setting": "[1]; 25 IU/h and 100 IU/h for 6 hours from devices", "result": "dose proportional"}, {"measurement": "delivery of calcitonin compared with conventional routes", "setting": "[1]; 40 IU over 2 hours from device vs 20 IU single subcutaneous injection", "result": "comparable to that from conventional routes"}]}, {"substance": "heparin", "values": [{"measurement": "amounts of heparin delivered", "setting": "[2]", "result": "significant anticoagulant amounts"}]}, {"substance": "insulin: solution of insulin (100 I.U./ml)", "values": [{"measurement": "mean blood glucose concentration", "setting": "blood glucose [3]; 1 hour following activation, 100 I.U./ml at 0.1 ml/hour, two rabbits", "result": 3.2, "unit": "mmol/L"}, {"measurement": "mean blood glucose concentration", "setting": "blood glucose [3]; 1.5 hours following activation, 100 I.U./ml at 0.1 ml/hour", "result": 2.65, "unit": "mmol/L"}, {"measurement": "mean blood glucose concentration", "setting": "blood glucose [3]; 2 hours following activation (devices removed), 100 I.U./ml at 0.1 ml/hour", "result": 2.5, "unit": "mmol/L"}, {"measurement": "mean blood glucose, course after device removal", "setting": "blood glucose [3]; later than one hour after device removal", "result": "continued to rise with time"}, {"measurement": "mean blood glucose concentration", "setting": "blood glucose [3]; one hour after device removal", "result": 3.7, "unit": "mmol/L"}, {"measurement": "plasma insulin concentration", "setting": "[4]; diabetic (alloxan) rabbits, approximately 10 fmol/ml at time 0", "result": "approximately 240 fmol/ml"}, {"measurement": "plasma insulin concentration", "setting": "[4]; normal (normoglycaemic) rabbits, approximately 25 fmol/ml at time 0", "result": "approximately 275 fmol/ml"}, {"measurement": "blood glucose concentration, change", "setting": "blood glucose [5]", "result": "corresponding decrease in blood glucose concentration was observed for both normal and diabetic animals"}]}]}
